Measured values: patent US6696407B1, “Huntington's disease treatment comprising administering aldose reductase inhibitors to increase striatal CNTF” (The Regents of the University of California, priority 1997, dated 2004)
Entries after “also recorded” stand apart in the source; their conditions may differ.

B1: CNTF: member of the neuropoietic cytokine family, a protein of 200 amino acids (protein, UniProt P26441 1-200, looked up)
Ciliary neurotrophic factor: MAFTEHSPLTPHRRDLCSRSIWLARKIRSDLTALTESYVKHQGLNKNINLDSADGMPVASTDQWSELTEAERLQENLQAYRTFHVLLARLLEDQQVHFTPTEGDFHQAIHTLLLQVAAFAYQIEELMILLEYKIPRNEADGMPINVGDGGLFEKKLWGLKVLQELSQWTVRSIHDLRFISSHQTGIPARGSHYIANNKKM

Columns and labels:
CNTF = experiment: Striatal CNTF levels by ELISA; format: in vivo, rat; settings: adult rats, oral 50 mg/kg/day for two months
Method: CNTF protein was determined with an ELISA that utilizes a monoclonal capture antibody which recognizes a non-C-terminal epitope on both rat and human CNTF (Regeneron, Tarrytown, N.Y.). The captured CNTF was recognized by a polyclonal rabbit anti-rCNTF reporter antibody. An alkaline phosphatase-tagged goat anti-rabbit IgG was used to generate the signal. In practice, 96-well Immulon plates were coated with capture antibody overnight, then blocked and washed. After overnight incubation of standards and samples, plates were washed and reporter antibody added. Following final washes, the reaction was developed using the GIBCO BRL ELISA amplification system substrate and amplifier. The reaction was stopped with 0.5 N H2SO4 and the plates read at two wavelengths (490 nm and 650 nm).
ARIs Toirestat and Ponalrestat were orally administered to adult rats at a dose of 50 mg/kg/day for two months as described in Example 1 and in Mizisin et al (1997) Diabetes 46: 647-652. For each rat, the left and right striatum were dissected and combined for homogenization in phosphate buffered saline. CNTF levels in extract preparations were then measured by ELISA, as described in Example 1. Four rats served as controls, and five rats each received Tolrestat and Ponalrestat. Five ELISA assays were run for each rat and one mean value derived for each rat.

[1] = Dittrich et al. (1994); cited from earlier work

| Molecule | Increase in striatal CNTF activity level versus control group (CNTF) | Plasma half-life [1] [min] |
| --- | --- | --- |
| COc1ccc2c(C(=S)N(C)CC(=O)O)cccc2c1C(F)(F)F [Tolrestat, N-[[6-methoxy-5-(trifluoromethyl)-1-naphthalenyl]thioxomethyl]-N-methylglycine] | significantly increased; also recorded: approximately two-fold |  |
| B1 |  | 2.9 |
